Data: PMC11792023, “PNPO‐Mediated Oxidation of DVL3 Promotes Multiple Myeloma Malignancy and Osteoclastogenesis by Activating the Wnt/β‐Catenin Pathway” (Advanced Science, 2024)

Assays:
[1] = target: T1, PNPO (pyridoxine-5'-phosphate oxidase) (Homo sapiens, UniProt Q9NVS9); assay: microscale thermophoresis (MST) with RED-NHS-labelled purified protein; format: binding
T1 construct: PNPO WT, 6×His tag (pet-28a)
T1 sequence (Q9NVS9 1-261): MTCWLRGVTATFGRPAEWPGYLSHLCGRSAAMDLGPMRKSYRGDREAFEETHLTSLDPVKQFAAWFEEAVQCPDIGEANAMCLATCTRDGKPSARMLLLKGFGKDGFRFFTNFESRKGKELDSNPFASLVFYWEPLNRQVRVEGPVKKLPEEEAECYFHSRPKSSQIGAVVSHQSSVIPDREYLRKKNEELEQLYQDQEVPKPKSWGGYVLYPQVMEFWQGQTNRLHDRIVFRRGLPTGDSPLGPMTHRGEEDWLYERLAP

[2] = target: T1, PNPO (pyridoxine-5'-phosphate oxidase); assay: microscale thermophoresis (MST); also HuProt […] proteome microarray with FITC-labelled celastrol; format: binding

| Kd [1] [nM] | Compound | microscale thermophoresis (MST); also HuProt 20K proteome microarray with FITC-l [2] |
| --- | --- | --- |
| 180 ± 90 | CC1=NN(c2ccc(C)c(C)c2)C(=O)/C1=N\Nc1cccc(-c2cccc(C(=O)O)c2)c1O [Eltrombopag] | – |
| – | CC1=C(O)C(=O)C=C2C1=CC=C1[C@@]2(C)CC[C@@]2(C)[C@@H]3C[C@](C)(C(=O)O)CC[C@]3(C)CC[C@]12C [celastrol] | MST analysis confirmed a direct interaction between celastrol and PNPO |
